Source: patent US20250057823A1, “COMPOSITION FOR IMPROVING CARDIAC FUNCTION” (Kyoto University, priority 2021, published 2025)
Structures can show the parent of a compound that is named as a salt.

How the values were obtained:
Assay type in all cases: in vivo
[1] = tested on: mouse models of HFpEF; assay: Mouse models of HFpEF (high-fat diet + L-NAME), acute effect; conditions: high-fat diet+L-NAME group
Procedure: Mouse models of HFpEF were prepared by high-fat diet and administration of L-NG-nitroarginine methyl ester (L-NAME) to test the effect of KUS121 on HFpEF. ICR mice were fed with normal diet and ultrapure water or high-fat diet and 0.5 g/L of L-NAME for 5 weeks.
Then, acute effect of KUS121 on HFpEF was tested. ICR mice fed with normal diet or high-fat diet+0.5 g/L of L-NAME were injected intraperitonially with 50 mg/kg of KUS121 and cardiac function was assessed by echocardiography before and 10 minutes after the injection. No difference in echocardiography was observed between the normal diet group and the high-fat diet+L-NAME group before injection of 5% glucose or KUS121 (FIG. 26). EF was not changed after […] in the control group and the high-fat diet+L-NAME group (FIG. 26, left and middle), but was increased after KUS121 injection in the high-fat diet+L-NAME group (FIG. 26, right).
Diastolic function was also tested. Global longitudinal strain (GLS), E/A, and E/E′ were assessed for evaluating cardiac diastolic function. Mice from the high-fat diet+L-NAME group had diastolic dysfunction as indicated by high levels of GLS, E/A, and E/E′ before KUS121 administration, the degree of which varied among the individual animals (FIG. 27).
To assess exercise tolerance, treadmill test (TMT) was performed.

[2] = tested on: mouse models of pressure overload-induced cardiac hypertrophy/heart failure (TAC); assay: Mouse models of TAC heart failure during heart failure phase; conditions: 50 mg/kg i.p. daily for 3 weeks starting 5 weeks after TAC
Procedure: (§1) Transverse aortic constriction (TAC) was performed as described previously [Date, et al. (2002) The antioxidant N-2-mercaptopropionyl glycine attenuates left ventricular hypertrophy in in vivo murine pressure-overload model. J Am Coll Cardiol 39: 907-912.]. Briefly, 8- to 10-week-old mice were anesthetized with anesthetic (0.3 mg/kg of medetomidine, 4.0 mg/kg of midazolam, and 5.0 mg/kg of butorphanol) administered intraperitoneally, and the proximal portion of the sternum was cut open to visualize the aorta. A 7-0 silk suture was placed around the aortic arch distal to the brachiocephalic artery. The suture was tightened firmly around a blunt 26-gauge needle placed adjacent to the aorta. The needle was then removed, and the chest and overlying skin were closed. Sham-operated mice underwent an identical surgical procedure without ligation of the aortic arch. At the end of the operation, 0.3 mg/kg of atipamezole was administered subcutaneously to reverse medetomidine. FIG. 1 is a schematic diagram of TAC.
(§2) Total RNA was reverse transcribed by blend primer of random hexamers and oligo-dT 3:1 (volume/volume) using Verso™ cDNA Synthesis Kit (Thermo Fisher Scientific, AB1453A) in accordance with the manufacturer's protocol, and the cDNA was analyzed by qRT-PCR. qRT-PCR measurements used THUNDERBIRD SYBR qPCR Mix (TOYOBO) in accordance with the manufacturer's instructions. Expression levels of messenger RNAs (mRNAs) were normalized by the indicated housekeeping genes, and calculated by the 2^−ΔΔCt method. All analyses were performed using a StepOnePlus real-time PCR system and StepOne Software v2.3 (Applied Biosystems, Inc).
Tissues were fixed with 4% paraformaldehyde, dehydrated with 70% ethanol, and then embedded in paraffin. Deparaffinized sections were stained with hematoxylin solution for cell nucleus, and stained with eosin solution for cytoplasm. Images were captured by Axio Observer7 (Zeiss). Cardiomyocyte cross-sectional area measurement was performed using ImageJ64 software (NIH). Approximately 150-200 cells were measured per heart, and averages were used for the analysis.
As described above, deparaffinized sections were stained with hematoxylin solution for cell nucleus, Masson solution for cytoplasm, and aniline blue for collagen fiber. Images were captured by a microscopy (BZ-9000, Keyence). Aniline blue-stained regions were measured using ImageJ64 software (NIH).
(§3) To analyze the cardiac function, we used Vevo® 2100 (VISUALSONICS) at the indicated time points after TAC operation. Mice were kept under inhalation anesthesia with 2.5% isoflurane. LV function was measured in M mode of the parasternal short-axis view.
(§4) Mouse models of pressure overload-induced cardiac hypertrophy/heart failure were prepared by TAC and were injected intraperitoneally with 50 mg/kg of KUS121 daily for 3 weeks starting 5 weeks after TAC. Sham-operated mice and control mice were injected with 5% glucose. Echocardiography was performed 5 weeks and 8 weeks after TAC. Eight weeks after TAC, the mice were sacrificed, the body weight and heart weight were measured, and heart samples were collected.

[3] = tested on: mouse models of pressure overload-induced cardiac hypertrophy/heart failure (TAC); assay: Mouse models of TAC heart failure during cardiac hypertrophic phase
Procedure: as §1, §2
Wheat Germ Agglutinin (WGA) Staining and the Quantification Paraffin-embedded ventricular short-axis sections were stained with FITC-conjugated lectin (Sigma, L4895). Images were captured by Axio Observer7 (Zeiss). Cardiomyocyte cross-sectional area measurement was performed using ImageJ64 software (NIH). Approximately 150-200 cells were measured per heart, and averages were used for the analysis.
as §3
as §4, with “2” for “3”, “immediately” for “5 weeks”, “Two” for “Echocardiography was performed 5 weeks and 8 weeks after TAC. Eight”, “TAC, echocardiography was performed, then” for “TAC,”

[4] = 50 mg/kg i.p., before and after administration
[5] = TAC mice, 50 mg/kg i.p. daily for 2 weeks starting immediately after TAC
[6] = echocardiography two weeks after TAC, 50 mg/kg i.p. daily
[7] = heart tissue, qRT-PCR, 50 mg/kg i.p. daily for 2 weeks after TAC

## Cc1cc(F)ccc1-c1ccc(/N=N/c2cc(S(=O)(=O)O)c3ccccc3c2N)cn1 [KUS121, 4-amino-3-[6-(4-fluoro-2-methylphenyl)pyridine-3-ylazo]naphthalene-1-sulfonic acid sodium salt]
[1]; [4]
  E/A: improved
  E/E′: improved
  Global longitudinal strain (GLS): improved
[1]; 50 mg/kg i.p., echocardiography before and 10 minutes after injection
  EF (left ventricular ejection fraction): increased
[1]; before and after 50 mg/kg
  blood pressure: lowered the blood pressure
  exercise tolerance (distance traveled in treadmill test): improved the exercise tolerance
  heart rate: slightly lowered the heart rate
[2]; TAC mice
  cardiomyocyte cross-sectional area: suppressed it
  fibrotic area in Masson's trichrome-stained heart: suppressed
[2]; TAC mice, 8 weeks after TAC
  heart weight: suppressed the increase in heart weight
  left ventricular systolic dysfunction (LVEF, echocardiography): suppressed the dysfunction
[2]; heart, qRT-PCR
  mRNA level of Col1a1 (cardiac fibrosis marker): suppressed
  mRNA level of Postn (cardiac fibrosis marker): suppressed
  mRNA level of VCP: increased the mRNA level of VCP
  mRNA levels of ANF, BNP, CHOP and Bip (other cardiac hypertrophy and endoplasmic reticulum stress markers): did not significantly affect the other mRNA levels
[3]; [5]
  cardiomyocyte cross-sectional area (WGA staining): suppressed the increase
  heart weight: suppressed the increases
  ratio of heart weight to body weight: suppressed the increases
[3]; [6]
  interventricular septum diameter at end-diastole (IVSd): suppressed both
  left ventricular ejection fraction (LVEF): did not significantly suppress the decrease
  left ventricular mass: suppressed both
[3]; [7]
  mRNA levels of cardiac hypertrophy markers (BNP and ANF): suppressed the increases
  mRNA levels of endoplasmic reticulum stress markers (Bip, CHOP, and VCP): not significantly affected
